ChEMBL document CHEMBL1148995, “Antitumor agents from bohemic acid complex, VI. Schaunardimycin” (J Nat Prod, 1984)

Legend:
L1210 [1] = assay: Antitumor activity against mouse L1210 cells implanted in CDF1 mouse assessed as median survival time at 0.2 mg/kg, ip qd for 1 to 5 days; type: functional; conditions: route intraperitoneal
Mus musculus [2] = assay: Toxicity in mouse L1210 cells implanted CDF1 mouse assessed as survivors on day 5 at 1.6 mg/kg, ip qd for 1 to 5 days; type: organism-based; set-up: dose 1.6 mg/kg, route intraperitoneal; conditions: in vivo
Mus musculus [3] = assay: Toxicity in mouse L1210 cells implanted CDF1 mouse assessed as survivors on day 5 at 3.2 mg/kg, ip single dose on day 1; type: organism-based; set-up: dose 3.2 mg/kg, route intraperitoneal; conditions: in vivo
Mus musculus [4] = assay: Toxicity in mouse L1210 cells implanted CDF1 mouse assessed as survivors on day 5 at 6.4 mg/kg, ip single dose on day 1; type: organism-based; set-up: dose 6.4 mg/kg, route intraperitoneal; conditions: in vivo
L1210 [5] = assay: Antitumor activity against mouse L1210 cells implanted in CDF1 mouse at 6.4 mg/kg, ip single dose on day 1 relative to control; type: functional; conditions: route intraperitoneal
L1210 [6] = assay: Antitumor activity against mouse L1210 cells implanted in CDF1 mouse assessed as median survival time at 3.2 mg/kg, ip single dose on day 1; type: functional; conditions: route intraperitoneal
L1210 [7] = assay: Antitumor activity against mouse L1210 cells implanted in CDF1 mouse assessed as median survival time at 0.8 mg/kg, ip qd for 1 to 5 days; type: functional; conditions: route intraperitoneal
Mus musculus [8] = assay: Toxicity in mouse L1210 cells implanted CDF1 mouse assessed as average weight gain at 12.8 mg/kg, ip single dose on day 1; type: organism-based; set-up: dose 12.8 mg/kg, route intraperitoneal; conditions: in vivo
L1210 [9] = assay: Antitumor activity against mouse L1210 cells implanted in CDF1 mouse at 1.6 mg/kg, ip qd for 1 to 5 days relative to control; type: functional; conditions: route intraperitoneal
Mus musculus [10] = assay: Toxicity in mouse L1210 cells implanted CDF1 mouse assessed as survivors on day 5 at 0.4 mg/kg, ip qd for 1 to 5 days; type: organism-based; set-up: dose 0.4 mg/kg, route intraperitoneal; conditions: in vivo
L1210 [11] = assay: Antitumor activity against mouse L1210 cells implanted in CDF1 mouse at 3.2 mg/kg, ip qd for 1 to 5 days relative to control; type: functional; conditions: route intraperitoneal
Mus musculus [12] = assay: Toxicity in mouse L1210 cells implanted CDF1 mouse assessed as survivors on day 5 at 3.2 mg/kg, ip qd for 1 to 5 days; type: organism-based; set-up: dose 3.2 mg/kg, route intraperitoneal; conditions: in vivo
Mus musculus [13] = assay: Toxicity in mouse L1210 cells implanted CDF1 mouse assessed as average weight gain at 0.2 mg/kg, ip single dose on day 1; type: organism-based; set-up: dose 0.2 mg/kg, route intraperitoneal; conditions: in vivo
L1210 [14] = assay: Antitumor activity against mouse L1210 cells implanted in CDF1 mouse assessed as median survival time at 3.2 mg/kg, ip qd for 1 to 5 days; type: functional; conditions: route intraperitoneal
L1210 [15] = assay: Antitumor activity against mouse L1210 cells implanted in CDF1 mouse at 3.2 mg/kg, ip single dose on day 1 relative to control; type: functional; conditions: route intraperitoneal
L1210 [16] = assay: Antitumor activity against mouse L1210 cells implanted in CDF1 mouse assessed as median survival time at 12.8 mg/kg, ip single dose on day 1; type: functional; conditions: route intraperitoneal
L1210 [17] = assay: Antitumor activity against mouse L1210 cells implanted in CDF1 mouse assessed as median survival time at 0.4 mg/kg, ip qd for 1 to 5 days; type: functional; conditions: route intraperitoneal
Mus musculus [18] = assay: Toxicity in mouse L1210 cells implanted CDF1 mouse assessed as average weight gain at 3.2 mg/kg, ip single dose on day 1; type: organism-based; set-up: dose 3.2 mg/kg, route intraperitoneal; conditions: in vivo
Mus musculus [19] = assay: Toxicity in mouse L1210 cells implanted CDF1 mouse assessed as average weight gain at 1.6 mg/kg, ip single dose on day 1; type: organism-based; set-up: dose 1.6 mg/kg, route intraperitoneal; conditions: in vivo
L1210 [20] = assay: Antitumor activity against mouse L1210 cells implanted in CDF1 mouse assessed as median survival time at 0.8 mg/kg, ip single dose on day 1; type: functional; conditions: route intraperitoneal
L1210 [21] = assay: Antitumor activity against mouse L1210 cells implanted in CDF1 mouse at 0.4 mg/kg, ip qd for 1 to 5 days relative to control; type: functional; conditions: route intraperitoneal
Mus musculus [22] = assay: Toxicity in mouse L1210 cells implanted CDF1 mouse assessed as average weight gain at 1.6 mg/kg, ip qd for 1 to 5 days; type: organism-based; set-up: dose 1.6 mg/kg, route intraperitoneal; conditions: in vivo
L1210 [23] = assay: Antitumor activity against mouse L1210 cells implanted in CDF1 mouse assessed as median survival time at 6.4 mg/kg, ip single dose on day 1; type: functional; conditions: route intraperitoneal
L1210 [24] = assay: Antitumor activity against mouse L1210 cells implanted in CDF1 mouse at 1.6 mg/kg, ip single dose on day 1 relative to control; type: functional; conditions: route intraperitoneal
Mus musculus [25] = assay: Toxicity in mouse L1210 cells implanted CDF1 mouse assessed as median survival time at 25.6 mg/kg, ip single dose on day 1; type: organism-based; set-up: dose 25.6 mg/kg, route intraperitoneal; conditions: in vivo

With `CC[C@@]1(O)C[C@H](O[C@H]2C[C@H](N(C)C)[C@H](O[C@H]3C[C@H](O)[C@H](O)[C@H](C)O3)[C@H](C)O2)c2c(cc3c(c2O)C(=O)c2c(O)ccc(O)c2C3=O)[C@H]1C(=O)OC` [MUSETTAMYCIN] the MST (L1210 [1]) was 6.5 days, the Activity (Mus musculus [2]) was “Active” and the Activity (Mus musculus [3]) was “Active”. The Activity (Mus musculus [4]) was “Active”, the T/C (L1210 [5]) was 158% and the MST (L1210 [6]) was 8 days. The MST (L1210 [7]) was 8 days, the Activity (Mus musculus [8]) was -2.3 g and the T/C (L1210 [9]) was 158%. For the same molecule, the Activity (Mus musculus [10]) was “Active”, the T/C (L1210 [11]) was 167% and the Activity (Mus musculus [12]) was “Active”. For the same molecule, the weight gain (Mus musculus [13]) was 2.7 g, the MST (L1210 [14]) was 10 days and the T/C (L1210 [15]) was 133%. The MST (L1210 [16]) was 10 days, the MST (L1210 [17]) was 7 days and the Activity (Mus musculus [18]) was 0.8 g. For the same molecule, the weight gain (Mus musculus [19]) was 0.7 g, the MST (L1210 [20]) was 7 days and the T/C (L1210 [21]) was 117%. It also gave a weight gain (Mus musculus [22]) of 0.3 g, an MST (L1210 [23]) of 9.5 days and a T/C (L1210 [24]) of 133%. The Activity (Mus musculus [25]) was “Toxic”.
